Laboratory results published in PMC9114170, “Investigation of the Role of Hydrophobic Amino Acids on the Structure-Activity Relationship in the Antimicrobial Venom Peptide Ponericin L1” (The Journal of membrane biology, 2021).
Ends that are not written are not given here.

Legend:
[1] = system: E. coli D31 inner membrane; test: E. coli inner membrane permeabilization (ONPG / β-galactosidase); assay type: cell-based, Escherichia coli; settings: E. coli D31, ONPG hydrolysis, absorbance 420 nm, up to 90 minutes; average of three replicates
Procedure: A single colony of E.coli D31 was inoculated into LB broth and placed in a shaking incubator and set to 225 rpm at 37 C for ~ 18 hours. A 1:250 dilution was made using the overnight culture into fresh LB broth. To induce the expression the expression of β-galactosidase, a final concentration of 100mM of IPTG was introduced. This dilution plus the IPTG was placed back into the shaking incubator for about 2 hours until an OD600 of 0.2-0.4 was achieved.
A 96 well plate was prepared with the following solutions in order: 10 μL of each peptide variant 2-fold serially diluted down the plate with the exception of the final row (used as a negative control 10 μL of 0.01% acetic acid), 56 μL Z-buffer (60mM Na2HPO4, 40mM NaH2PO4, 10mM KCl, 1mM MgSO4, 50mM β-mercaptoethanol pH 7), 19 μL of the E. coli culture, and 15 μL of 4 mg/ml ONPG that was prepared in Z-buffer added immediately before the assay began. Absorbance measurements wer taken at 420 nm every 5 minutes for a total run time of 90 minutes. […]
As the mechanism of action of the L1 venom peptide is likely a membrane disruptive mechanism, the effect of the hydrophobic substitutions on membrane permeabilization was investigated using E.coli and ovine red blood cells (RBCs). […] Similarly, the permeabilization of the E. coli inner membrane was assessed using a cytoplasmic enzyme, β-galactosidase, and a chromogenic substrate, ONPG. […]

[2] = Peptide binding to lipid vesicles by Trp emission barycenter shift; assay type: physicochemical; settings: anionic and zwitterionic SUVs titrated into 2 μM peptide in PBS; λex 280 nm, λem 300 to 400 nm
Procedure: To form small unilamellar vesicles (SUVs) sonication or ethanol dilution methods were implemented ([Caputo & London, 2019]). In all cases, lipid vesicle preparation was the same. Depending on the lipid composition, appropriate volumes of lipids in chloroform were mixed in a glass tube and then allowed to dry under N2 gas for 15 minutes. The lipid films were then placed in a vacuum desiccator and allowed to dry further under a vacuum for 1 hour. For vesicles formed through ethanol dilution methods, 10 μL of pure ethanol was added to the film, and then vortex until the dissipation of the film. While continuing to vortex, the appropriate amount of PBS was added. For vesicles formed using the method of sonication, PBS was added directly to the tube while being vortexed to create multilamellar vesicles (MLVs). […]
All fluorescence spectroscopy experiments were preformed using a JY-Horiba Fluoromax4 instrument. […]
Considering that the first step in the mechanism of action of many AMPs is the binding to the bacterial cell surface, binding to model lipid vesicles was performed. […] The impact of lipid composition on binding to model vesicles was investigated using a simple vesicle titration experiment in which Trp fluorescence was measured after addition of lipid vesicles. […]

[3] = system: Sheep red blood cells (RBCs); test: Hemolysis; assay type: cell-based; settings: ovine RBCs, 1 hour at 37 C, up to 15μM peptide, absorbance 415 nm, normalised to Triton X-100; average of three replicates
Procedure: Hemolysis on Sheep red blood cells (RBCs) was used to quantify the destabilization of membranes by leakage of hemoglobin. Sheep blood was obtained through Hemostat Laboratories and stored at 2 – 8 C. A 7 mL aliquot of whole sheep blood was mixed with 7 mL of sterile PBS at pH 7.4. The solution was sedimented via centrifugation for 7 minutes at 2500 rpm. Supernatant was removed and the pellet was resuspended to the original volume of 14 mL. This was repeated three times and the final pellet was resuspended to 14 with PBS. Next, 90 μl of the cell suspension was pipetted into all wells of a conical bottom 96-well plate. […] The absorbance of the plate was taken at 415 nm using a Spectramax M5 multimode plate reader. By using the absorbance of each well compared to the wells without additive and those with Triton-X 100 a percentage of hemolysis was calculated. […]
Hemolytic activity of venom peptides and, more broadly AMPS in general, has often been a first approximation toward assessing potential for further development. […] The peptides we co-incubated with freshly isolated ovine red blood cells and peptide-induced hemolysis was determined by comparing hemoglobin leakage from treated cells to that of untreated cells as well as cells treated with the detergent Triton X-100 as a positive control.

Sequence: FFKEFWTKMKGAGKAFFGKFKGFF [L1F]
- Inner membrane permeabilization [1]: exhibited any inner membrane permeabilizing activity
- Extent of spectral shift (Trp emission barycenter) on binding lipid vesicles [2]: ~ 14 nm
- Hemolysis [3]: do not cross the threshold for inducing hemolytic activity

Sequence: LLKELWTKMKGAGKALLGKLKGLL [L1L]
- Inner membrane permeabilization [1]: exhibited any inner membrane permeabilizing activity
- Hemolysis [3]: do not cross the threshold for inducing hemolytic activity
